Assay [1] deals with T1, COX-1 (Homo sapiens, UniProt P23219).
T1 construct: host or cells: U-937 human lymphoma cells
The assay is described as follows: Assay for the COX-1 inhibitory activity using U-937. The class given is cell-based. The conditions noted are these: 1 μM test compound; PGE2 inhibition in U-937 human lymphoma cells vs DMSO control; read-out: Cyclooxygenase (COX) Inhibition (%) COX-1 (1 μM). The protocol: The collected cells were diluted with HBSS (x1, Hank's balanced salt solution) to a concentration of 1×10^6 cells/ml. 1 ml of the dilute cell solution was placed into each well of 12-well plates. 5 μl of 1 μM solution of a test compound in DMSO and 5 μl of DMSO as a control were added to the wells. The wells were incubated in CO2 incubator at 37° C. for 15 minutes. Separately, 10 mM stock solution of arachidonic acid in ethanol was diluted ten times in ethanol to prepare 1 mM solution of arachidonic acid. Arachidonic acid acts as a substrate. 10 μl of the 1 mM solution of arachidonic acid was added to each well and incubated at CO2 incubator at 37° C. for 30 minutes. The cell solution of each well was placed in a centrifuge test tube and centrifuged at 10,000 rpm at 4° C. for 5 minutes. The concentration of PGE2 in the collected cells and the supernatant was quantified by means of a monoclonal kit (Cayman Chemicals). The percentages of PGE2 inhibition in a group of the test compound-treated cells in relation to a group of the DMSO-treated cells were calculated. Based on the calculated values, the COX-1 inhibitory activities were evaluated.
(§1) % Inhibition=(concentration of PGE2 in test compound-untreated sample−concentration of PGE2 in test compound-treated sample)/(concentration of PGE2 in test compound-untreated sample)×100

Assay [2] deals with T2, COX-2 (Mus musculus, UniProt Q05769).
T2 construct: host or cells: RAW 264.7 cells, aspirin-pretreated, induced with interferon γ and LPS
T2 sequence (Q05769 18-604): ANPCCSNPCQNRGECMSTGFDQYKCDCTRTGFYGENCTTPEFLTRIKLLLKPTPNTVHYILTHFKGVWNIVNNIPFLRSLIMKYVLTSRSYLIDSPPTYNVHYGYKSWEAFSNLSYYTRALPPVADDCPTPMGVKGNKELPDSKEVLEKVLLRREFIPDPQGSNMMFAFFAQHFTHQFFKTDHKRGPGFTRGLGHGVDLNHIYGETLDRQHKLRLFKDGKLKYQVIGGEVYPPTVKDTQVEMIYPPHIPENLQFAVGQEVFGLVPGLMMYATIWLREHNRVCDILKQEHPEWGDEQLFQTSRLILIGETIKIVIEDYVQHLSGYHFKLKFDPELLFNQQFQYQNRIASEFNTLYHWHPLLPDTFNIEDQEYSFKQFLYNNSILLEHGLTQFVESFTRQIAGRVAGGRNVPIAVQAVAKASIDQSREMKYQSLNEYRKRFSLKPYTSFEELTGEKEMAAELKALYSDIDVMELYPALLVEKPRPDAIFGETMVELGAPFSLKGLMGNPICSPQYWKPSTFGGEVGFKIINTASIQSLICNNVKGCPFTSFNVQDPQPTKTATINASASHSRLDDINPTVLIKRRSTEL
Briefly: Assay for the COX-2 inhibitory activity using RAW 264.7 cell line. It is filed as cell-based. The conditions noted are these: RAW264.7; 10 nM test compound; PGE2 in RAW 264.7 cells treated with interferon γ and LPS, 18 hours; read-out: Cyclooxygenase (COX) Inhibition (%) COX-2 (10 nM). The procedure: Each well was treated with 250 μM of aspirin and incubated at 37° C. for 2 hours. After the culture media were replaced with new culture media, the new culture media were treated with a test compound (10 nM) and incubated for 30 minutes. Then, each well was treated with interferon γ (100 units/ml) and lipopolysaccharide (LPS, 100 ng/ml) and incubated for 18 hours. The culture media were transferred to other test tubes. The concentration of PGE2 was quantified by means of the EIA kit (Cayman Chemicals).
as §1

T1 sequence (P23219 24-599): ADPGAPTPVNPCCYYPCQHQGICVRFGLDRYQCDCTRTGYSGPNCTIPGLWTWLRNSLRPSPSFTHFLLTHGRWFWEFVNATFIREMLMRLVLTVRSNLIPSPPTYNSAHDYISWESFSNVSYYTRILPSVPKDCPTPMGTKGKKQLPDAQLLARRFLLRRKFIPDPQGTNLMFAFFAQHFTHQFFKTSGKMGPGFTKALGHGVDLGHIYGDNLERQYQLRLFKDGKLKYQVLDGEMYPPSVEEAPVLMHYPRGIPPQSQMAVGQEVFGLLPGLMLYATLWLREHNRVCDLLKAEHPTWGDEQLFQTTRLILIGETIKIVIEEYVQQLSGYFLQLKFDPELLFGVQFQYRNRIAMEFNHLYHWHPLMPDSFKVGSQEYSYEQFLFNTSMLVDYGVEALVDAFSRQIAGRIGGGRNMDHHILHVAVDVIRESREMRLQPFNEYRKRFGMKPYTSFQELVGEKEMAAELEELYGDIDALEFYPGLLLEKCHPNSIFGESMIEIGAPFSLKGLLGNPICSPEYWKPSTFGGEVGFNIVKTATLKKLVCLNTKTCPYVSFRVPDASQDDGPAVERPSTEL

Take `CS(=O)(=O)c1ccc(-n2nc(C(F)(F)F)nc2-c2ccc3ccccc3c2)cc1` [Example 10, 1-(4-methylsulfonylphenyl)-5-(naphthalene-2-yl)-3-trifluoromethyl-1H-1,2,4-triazole]: in assay [1], the inhibition (as a rule, the relative decrease from the control value, in per cent) at 1 µM is 26.2%. For the same molecule, the inhibition at 0.01 µM in assay [2] worked out at 12.3%.

In the case of `CS(=O)(=O)c1ccc(-n2nc(C(F)(F)F)nc2-c2cc3ccccc3o2)cc1` [Example 11, 5-(benzofuran-2-yl)-1-(4-methylsulfonylphenyl)-3-trifluoromethyl-1H-1,2,4-triazole], in assay [1], the inhibition at 1 µM worked out at 24.3%. The inhibition at 0.01 µM in assay [2] worked out at 10.6%.

Turning to `CS(=O)(=O)c1ccc(-n2nc(C(F)(F)F)nc2-c2cc3ccccc3[nH]2)cc1` [Example 12, 2-[2-(4-methylsulfonylphenyl)-5-trifluoromethyl-2H-1,2,4-triazole-3-yl]-1H-indole], in assay [1], the inhibition at 1 µM is 26.3%. For the same molecule, in assay [2], the inhibition at 0.01 µM amounted to 5.67%.

Regarding `Cn1c(-c2nc(C(F)(F)F)nn2-c2ccc(S(C)(=O)=O)cc2)cc2ccccc21` [Example 13, 1-methyl-2-[2-(4-methylsulfonylphenyl)-5-trifluoromethyl-2H-1,2,4-triazole-3-yl]-1H-indole], in assay [1], the inhibition at 1 µM came out at 9.8%. Moreover, in assay [2], the inhibition at 0.01 µM worked out at 25.7%.

Regarding `Cn1cc(-c2nc(C(F)(F)F)nn2-c2ccc(S(C)(=O)=O)cc2)c2ccccc21` [Example 14, 1-methyl-3-[2-(4-methylsulfonylphenyl)-5-trifluoromethyl-2H-1,2,4-triazole-3-yl]-1H-indole], the inhibition at 1 µM in assay [1] amounted to 21.3%. Moreover, the inhibition at 0.01 µM in assay [2] stood at 6.02%.

Regarding `CS(=O)(=O)c1ccc(-n2nc(C(F)(F)F)nc2-c2ccc3ccccc3n2)cc1` [Example 15, 2-[2-(4-methylsulfonylphenyl)-5-trifluoromethyl-2H-1,2,4-triazole-3-yl]quinoline], in assay [1], the inhibition at 1 µM worked out at 22.3%. The inhibition at 0.01 µM in assay [2] turned out to be 5.42%.

Regarding `NS(=O)(=O)c1ccc(-n2nc(C(F)(F)F)nc2-c2ccc3ccccc3c2)cc1` [Example 16, 4-[5-(naphthalene-2-yl)-3-trifluoromethyl-1,2,4-triazole-1-yl]benzenesulfonamide], in assay [1], the inhibition at 1 µM was found to be 32.9%. Besides, the inhibition at 0.01 µM in assay [2] was 16.3%.

Consider `CS(=O)(=O)c1ccc(-n2nc(C(F)(F)F)nc2-c2ccc3ccccc3c2)nc1` [Example 17, 5-methanesulfonyl-2-[5-(naphthalene-2-yl)-3-trifluoromethyl-1,2,4-triazole-1-yl]pyridine], for which the inhibition at 1 µM in assay [1] amounted to 10.6%. Moreover, in assay [2], the inhibition at 0.01 µM worked out at 23.3%.

Values taken from US7230010B2, “1,2,4-triazole derivative, method for preparing the same, and pharmaceutical composition containing the same” (CJ Corp., priority 2002, dated 2007).
